Data as given in patent US5919761A, “Peptides for heparin and low molecular weight heparin anticoagulation reversal” (The Board of Regents of the University of Michigan, priority 1995, dated 1999).
“And” between values parts separate entries of the source, which are not always exact repeats. Equal entries are not always repeated. Peptide text beside a SMILES is read from it.

Legend:
[1] = test system: standard, unfractionated heparin; assay: Factor Xa and IIa reversal after standard heparin, cell adhesion ligand analogs, canine study; assay type: in vivo; conditions: dogs, 3 min post administration
Protocol: Anticoagulation reversal was assessed by a number of standard coagulation tests performed upon samples of venous blood in the manner described hereinabove. Measurements were made 3 minutes prior to heparin reversal (baseline) and 3 minutes, 10 minutes, and 30 minutes post-administration of the heparin reversal agent. […] Referring to FIGS. 4a through 4d, compound [+18RGD] performs as well, or better, than n-protamine in the standard coagulation tests performed in these studies.

[2] = Percent change in platelet count after standard heparin reversal, cell adhesion ligand analogs, canine study; assay type: in vivo; conditions: dogs, agent over 10 seconds
Protocol: In addition to hemodynamic changes, Table 15 lists the percent change in platelet count following administration of n-protamine and the selected variants, as well as the factor Xa and factor IIa reversal, as a percent change at 3 minutes post administration of the compound.

LMWH (Enoxaparin) = assay: Factor Xa and IIa reversal after LMWH Enoxaparin, canine study; assay type: in vivo; conditions: dogs, 3 min
Protocol: Similar studies were conducted to assess the ability of the protamine-like peptide analogs described in this section to reverse the anticoagulation effects of the LMWH, Enoxaparin. FIG. 5a through FIG. 5d are graphical representations of LMWH anticoagulation activities achieved by n-protamine (Protamine [+21]), and compounds [+18BE], [+18KDEL], and [+18RGD] plotted as a percent of reversal against time in minutes. […] Referring to FIG. 5c, compound [+18RGD] dramatically outperforms n-protamine in reversing the heparin antifactor Xa activity of Enoxaparin.

[3] = Percent change in platelet count after Enoxaparin reversal, canine study; assay type: in vivo; conditions: dogs, agent over 10 seconds
Protocol: (§1) Seven female dogs (mean weight 15-20 kg) received intravenous standard, unfractionated heparin (150 IU/kg IV) or LMWH (Enoxaparin, Rhone-Poulac, France; 100 IU/kg factor Xa activity) followed by reversal with commercial salmine protamine (n-protamine purchased from Eli Lilly, Indianapolis, Ind., 1.5 mg/kg (100 IU/mg) IV) or an anticoagulation-reversing agent which is a protamine-like peptide variant identified hereinbelow. In these studies, the anticoagulation-reversing agents were administered over a 10 second interval to maximize the hemodynamic effects.

[4] = Maximum hemodynamic changes and total toxicity score after Enoxaparin reversal, canine study; conditions: dogs, agent over 10 seconds; for Maximum hemodynamic change, Mean BP: Enoxaparin 100 IU/kg; for Maximum hemodynamic change, Mean BP / Maximum hemodynamic change, CO / Maximum hemodynamic change, HR / Maximum hemodynamic change, VO2: 5 minutes; for Total Toxicity Score (TTS) / Maximum hemodynamic change, CO / Maximum hemodynamic change, HR / Maximum hemodynamic change, VO2: Enoxaparin
Protocol: as §1

[5] = Maximum hemodynamic changes and total toxicity score after standard heparin reversal, cell adhesion ligand analogs, canine study; conditions: dogs, agent over 10 seconds; for Maximum hemodynamic change, Mean BP: standard heparin 150 IU/kg IV; for Maximum hemodynamic change, Mean BP / Maximum hemodynamic change, CO / Maximum hemodynamic change, HR / Maximum hemodynamic change, VO2: 5 minutes; for Maximum hemodynamic change, CO / Maximum hemodynamic change, HR / Maximum hemodynamic change, VO2: standard heparin; for Total Toxicity Score: standard unfractionated heparin
Protocol: In these studies, the anticoagulation-reversing agents were administered over a 10 second interval to maximize the hemodynamic effects.
Hemodynamic studies were conducted by measuring mean blood pressure (Mean BP) in mm Mercury, maximum percent changes in cardiac output (CO) and systemic oxygen consumption (VO2), and heart rate (HR) in beats per minute. Measurements and calculations were made at baseline, before administration of standard, unfractionated heparin, 3 minutes before reversal, every 30 seconds for 5 minutes after reversal.
Total toxicity scores (TTS) were developed in accordance with the method described hereinabove that reflected maximum declines in each of four parameters (MAP, CO, VO2 and HR) over the first 5 minutes after reversal.

[6] = test system: standard, unfractionated heparin; assay: Percent reversal of standard heparin anticoagulation by variant peptides and protamine, in vivo canine study, coagulation tests; set-up: species or system dogs; conditions: for Percent reversal of heparin anticoagulation, ACT: heparin 150 IU/kg IV, agent 1.5 mg/kg IV over 10 seconds
Protocol: Data are expressed as a mean ±1 SD. Statistical analysis using linear regression for determination of correlation coefficients, and analysis of variance (ANOVA) or unpaired two-way Student's t-test; p<0.05 was accepted as statistically significant.
Anticoagulation reversal was assessed by a number of standard coagulation tests performed upon samples of venous blood: activated clotting time (ACT), prothrombin time (PT), activated partial thromboplastin time (aPTT), thrombin clotting time (TCT), heparin concentration by assay for FXa inhibitory activity (FXa), white cell count (WBC), and platelet counts (PLT). Measurements were made 3 minutes prior to heparin reversal (baseline) and 3 minutes and 30 minutes post-administration of the heparin reversal agent. The "Heparin" row sets forth the observed reversal as a consequence of expected heparin metabolism or degradation alone.

[7] = Hemodynamic studies and total toxicity score after standard heparin reversal, canine study; conditions: dogs
Protocol: As used hereinafter, the peptides will be identified by their total cationic charge value, e.g., [+8], [+16], etc.
Hemodynamic studies were conducted by measuring mean arterial pressure (MAP), heart rate (HR), and maximum percent changes in cardiac output (CO) and systemic oxygen consumption (VO2).
Total toxicity scores (TTS) were developed that reflected maximum declines in each of four parameters (MAP, CO, VO2 and HR) over the first 5 minutes after reversal, the latter being the time of expected greatest adverse hemodynamic effect. The maximum changes occurring in an individual dog over the first 5 minutes were divided by the standard deviation derived from the entire group of tested animals and the four scores were added, resulting in a TTS for each individual dog. The TTS values for each dog were then summed to obtain an average TTS and SD for each peptide studied.

| Compound | IIa Reversal [1] [%] | Xa Reversal [1] [%] | Platelet (percent change in platelet count) [2] [%] | IIa Reversal (LMWH (Enoxaparin)) [%] | Xa Reversal (LMWH (Enoxaparin)) [%] | Platelet (percent change in platelet count) [3] [%] | Maximum hemodynamic change, Mean BP [4] [mm Mercury] | Total Toxicity Score (TTS) [4] | Maximum hemodynamic change, CO [4] [%] | Maximum hemodynamic change, HR [4] [beats/min] | Maximum hemodynamic change, VO2 [4] [%] | Maximum hemodynamic change, Mean BP [5] [mm Mercury] | Maximum hemodynamic change, CO [5] [%] | Maximum hemodynamic change, HR [5] [beats/min] | Maximum hemodynamic change, VO2 [5] [%] | Total Toxicity Score [5] | other results |
| --- | --- | --- | --- | --- | --- | --- | --- | --- | --- | --- | --- | --- | --- | --- | --- | --- | --- |
| CC(=O)N[C@@H](CCC(=O)O)C(=O)N[C@@H](C)C(=O)N[C@@H](CCCNC(=N)N)C(=O)N[C@@H](CCCNC(=N)N)C(=O)N[C@@H](C)C(=O)N[C@@H](C)C(=O)N[C@@H](CCCNC(=N)N)C(=O)N[C@@H](CCCNC(=N)N)C(=O)N[C@@H](C)C(=O)N[C@@H](CCCNC(=N)N)C(=O)N[C@@H](CCCNC(=N)N)C(=O)N[C@@H](C)C(=O)N[C@@H](C)C(=O)N[C@@H](CCCNC(=N)N)C(=O)N[C@@H](CCCNC(=N)N)C(=O)N[C@@H](C)C(=O)N[C@@H](CCCNC(=N)N)C(=O)N[C@@H](CCCNC(=N)N)C(=O)N[C@@H](C)C(=O)N[C@@H](C)C(=O)N[C@@H](CCCNC(=N)N)C(=O)N[C@@H](CCCNC(=N)N)C(=O)N[C@@H](C)C(=O)N[C@@H](CCCNC(=N)N)C(=O)N[C@@H](CCCNC(=N)N)C(=O)N[C@@H](C)C(=O)N[C@@H](C)C(=O)N[C@@H](CCCNC(=N)N)C(=O)N[C@@H](CCCNC(=N)N)C(=O)N[C@@H](C)C(=O)N[C@@H](CCCNC(=N)N)C(=O)N[C@@H](CCCNC(=N)N)C(=O)NCC(=O)N[C@H](C(=O)N[C@@H](CCCCN)C(=O)N[C@@H](CC(=O)O)C(=O)N[C@@H](CCC(=O)O)C(=O)N[C@@H](CC(C)C)C(=O)O)C(C)C [[+18KDEL], acetyl-EA(R2 A2 R2 A)4 R2 GVKDEL] (Ac-EARRAARRARRAARRARRAARRARRAARRARRGVKDEL-OH) | 94 | 97 | -24 | 98 | 48 | -40 | -6 | -5.00 and -5.0 ± 3.44 | -14 | -11 | -10 | -5 | -12 | -14 | -6 | -3.53 ± 1.65 | – |
| CC(=O)N[C@@H](CCC(=O)O)C(=O)N[C@@H](C)C(=O)N[C@@H](CCCNC(=N)N)C(=O)N[C@@H](CCCNC(=N)N)C(=O)N[C@@H](C)C(=O)N[C@@H](C)C(=O)N[C@@H](CCCNC(=N)N)C(=O)N[C@@H](CCCNC(=N)N)C(=O)N[C@@H](C)C(=O)N[C@@H](CCCNC(=N)N)C(=O)N[C@@H](CCCNC(=N)N)C(=O)N[C@@H](C)C(=O)N[C@@H](C)C(=O)N[C@@H](CCCNC(=N)N)C(=O)N[C@@H](CCCNC(=N)N)C(=O)N[C@@H](C)C(=O)N[C@@H](CCCNC(=N)N)C(=O)N[C@@H](CCCNC(=N)N)C(=O)N[C@@H](C)C(=O)N[C@@H](C)C(=O)N[C@@H](CCCNC(=N)N)C(=O)N[C@@H](CCCNC(=N)N)C(=O)N[C@@H](C)C(=O)N[C@@H](CCCNC(=N)N)C(=O)N[C@@H](CCCNC(=N)N)C(=O)N[C@@H](C)C(=O)N[C@@H](C)C(=O)N[C@@H](CCCNC(=N)N)C(=O)N[C@@H](CCCNC(=N)N)C(=O)N[C@@H](C)C(=O)N[C@@H](CCCNC(=N)N)C(=O)N[C@@H](CCCNC(=N)N)C(=O)NCC(=O)N[C@@H](CCCNC(=N)N)C(=O)NCC(=O)N[C@@H](CC(=O)O)C(=O)N[C@@H](CO)C(=O)N1CCC[C@H]1C(=O)N[C@@H](C)C(N)=O [[+18RGD], acetyl-EA--(R2 A2 R2 A)4 R2 GRGDSPA-amide] (Ac-EARRAARRARRAARRARRAARRARRAARRARRGRGDSPA-NH2) | 100 | 100 | -27 | 100 | 72 | -31 | -1 | -2.68 and -2.68 ± 0.88 | -3 | -3 | -7 | -2 | -3 | -3 | -4 | -1.43 ± 0.61 | – |
| P(K2 O2 G4)3 K2 O2 [[+8]] | – | – | – | – | – | – | – | – | – | – | – | – | – | – | – | – | in vivo heparin reversal (summary) ([6]; dogs, standard heparin): not capable of effect heparin reversal; Percent reversal of heparin anticoagulation, ACT ([6]; dogs, 3 min post-administration): 7%; Percent reversal of heparin anticoagulation, ACT ([6]; dogs, 30 min): 37%; Percent reversal of heparin anticoagulation, APTT ([6]; same study, 3 min): 0%; Percent reversal of heparin anticoagulation, FNa ([6]; same study, 3 min): 8%; Percent reversal of heparin anticoagulation, FXa ([6]; same study, 3 min): -1%; Percent reversal of heparin anticoagulation, PT ([6]; same study, 3 min): 21%; Percent reversal of heparin anticoagulation, TCT ([6]; same study, 3 min): 0%; Percent reversal of heparin anticoagulation, APTT ([6]; same study, 30 min): 50%; Percent reversal of heparin anticoagulation, FXa ([6]; same study, 30 min): 9%; Percent reversal of heparin anticoagulation, PT ([6]; same study, 30 min): 50%; Percent reversal of heparin anticoagulation, TCT ([6]; same study, 30 min): 0%; ΔHR [7]: -9; ΔMAP ([7]; average maximum decline in first five minutes after peptide administration): -1; average total toxicity score (TTS±SD) ([7]; first 5 minutes after reversal, more negative = more toxic): -1.9±1.1; ΔCO ([7]; maximum percent change): -8%; ΔVO2 ([7]; maximum percent change): -8% |
